We go through eight molecules from US20260258003A1, “SLACK-ACTIVATING COMPOUNDS AND THEIR MEDICAL USE” (Johann Wolfgang Goethe-Universität Frankfurt am Main, priority 2023, published 2026).

Series [1] is described as follows: In vivo pharmacokinetic study, plasma and brain levels by LC-MS. Details: species or system mice. The following applies: male, C57BL/6, mouse, in vivo, ip; for % AUCextra / AUC(0-inf) / AUC(0-t) / CL/F / Cmax / Cz / Tmax / Vd/F / half-life / tz: 1 mg/kg. How it is done: The compounds pharmacokinetic properties were examined in vivo by administering the compounds intraperitoneally (i.p.) at 1 mg/kg in mice, and determining plasma and brain levels over 8 h by LC-MS measurements.
The pharmacokinetic study was performed by Pharmacelsus (Saarbrücken, Germany). In total 27 male C57BL/6 mice (8 weeks old, 23-31 g body weight, purchased from Janvier Labs, France) were used. The animals were housed in a temperature-controlled room (20-24° C.) and maintained in a 12 h light/dark cycle. Food and water were available ad libitum. All experimental procedures were approved by and conducted in accordance with the regulations of the local Animal Welfare authorities (Landesamt für Gesundheit und Verbraucherschutz, Abteilung Lebensmittel-und Veterinärwesen, Saarbrücken).
The animals were divided into 3 groups (9 mice/group) and a cassette dosing was performed, in which the mice received a single dose of 1 mg/kg body weight of 3-4 compounds (dissolved in 0.9% NaCl containing 20% cyclodextrine) i.p. simultaneously. From each animal 2 blood samples were collected from the retrobulbar venous plexus under short isoflurane anesthesia (at 0.25 h and 0.5 h from 3 mice; at 1 h and 2 h from 3 mice; and at 4 h and 8 h from 3 mice). Li-heparin was used as anticoagulant. Plasma samples were obtained by centrifugation for 10 min at 3000× g and 4° C. Immediately after the last blood sample the animal was sacrificed by cervical dislocation and the brain was removed and frozen in liquid nitrogen. Plasma and brain samples were stored at −80° C. until LC-MS analysis.
For all other compounds, the HPLC system consisted of a U-HPLC pump (Accela) and an AS Open auto sampler (Thermo Fisher Scientific, USA), and mass spectrometry was performed on a Q Exactive (Orbitrap) accurate mass spectrometer equipped with a heated electrospray (H-ESI) interface (Thermo Fisher Scientific, USA) connected to a PC running the standard software Chromeleon 7.2. For all compounds, the HPLC pump flow rate was set to 600 μl/min and the compounds were separated on an analytical column with a suitable pre-column. The pharmacokinetic analysis was performed applying a non-compartment model using the Kinetica 5.0 software (Thermo Scientific, Waltham, USA). All given parameters were obtained by trapezoid area calculation.

A short description of series [2]: BBB-specific parallel artificial membrane permeability assay (PAMPA-BBB). The class given is in vitro ADME, porcine. As to conditions: pH 7.4, 37° C.; for MR (membrane retention factor): 4 h; for Papp at 4 h, 100 μM: pig, Pe in cm/s, read-out: BBB permeability log Pe (converted). How it is done:
BBB permeability was estimated using a BBB-specific parallel artificial membrane permeability assay (PAMPA-BBB). […] Five v/v % DMSO in PBS (Phosphate Buffer Saline; 0.01 M, pH=7.4) buffer solutions of each compound were prepared with the final nominal concentration of 100 μM. These solutions were treated with ultrasonic waves and then centrifuged in case the test compounds were insoluble at this concentration. Proceeding with saturated, homogenous solutions (CD(0)) is sufficient because log Pe only depends on relative concentrations. A BBB specific PAMPA system was used to determine the log Pe and membrane retention (MR). Each well of the top plate (MultiScreen […]10; Millipore; Billerica, US) was carefully coated with 5 μL of porcine polar brain lipid extract (PBLE; Avanti Polar Lipids, Birmingham, US) solution, then 150 μL of the CD(0) solution was put on the membrane. The bottom plate (MultiScreen MDCPN2M50; Millipore, Billerica, US) was filled with […] PBS. PBLE solution consisted of 1 mg PBLE per 10 μL n-dodecane and 30 μL n-hexane. The donor plate was put on the acceptor plate and covered with a wet paper tissue and a plate lid. The sandwich system was incubated at 37° C. for 4 h. The plates were shaken and incubated in a Thermo ScientificTM MaxQTM 4000 Benchtop Orbital Shaker (Gel, Belgium). After the incubation, PAMPA sandwich plates were separated and compound concentrations in donor (CD(t)) and acceptor (CA(t)) solutions were determined by UPLC-MS (Waters, Milford, US). The concentration of the donor solution at zero time point (CD(0)) was determined using the supernatant after centrifugation.

In a further series the test system is motor function of mice. In words: Vertical pole test (motor function). The class given is in vivo. As to conditions: 3-30 mg i.p., after rotarod test. How it is done: Further studies were conducted to assess the in vivo efficacy of Compound 6 and Compound 10 in mice. In detail, experiments were performed in 8 to 16 weeks old C57BL/6N mice (Charles River, Sulzfeld, Germany) and animals with a genetic deletion of Slack (Slack^−/− mice^27) of either sex. Animals were housed on a 12 h light/dark cycle with access to food and water ad libitum. All experiments adhered to the guidelines of the International Association for the Study of Pain and to the ARRIVE (Animal Research: Reporting on In Vivo Experiments) guidelines, and were approved by and conducted in accordance with the regulations of the local Animal Welfare authorities (Regierungspräsidium Darmstadt, Germany). All behavioral studies were conducted during the light cycle of the day at room temperature (20-24° C.) by an observer blinded for the treatment of the animals and/or their genotype.
Accelerating rotarod and vertical pole test were performed as follows: Mice were placed on a rotarod treadmill (Ugo Basile, Italy) with increasing speed (4-40 rpm over 300 s), and were trained for 4-5 consecutive days. Only mice reaching the 300 seconds without falling off were included in the experiment. On the testing day, compounds were i.p. administered in a vehicle composed of 0.9% saline (Sigma-Aldrich) containing 10% 2-hydroxypropyl-β-cyclodextrine (ITW Reagents) and after 15 min the latency to fall off the accelerating rotarod was measured. Immediately thereafter, mice were placed head-upward on the top of a vertical pole with a rough surface (diameter 1 cm, height 40 cm) and the time until animals reached the ground was recorded (cut-off time 20 s). Means out of three trials for each time point were calculated for further analysis.
On the technique in general: In the rotarod test animals must keep their balance on a rotating rod.

Series [3] deals with T1, serotonin 5-HT2A receptor (Homo sapiens, UniProt P28223).
T1 construct: Eurofins SafetyScreen44
In words: SafetyScreen44 binding. The following applies: 10 μM; substantial = higher than 50%. Here is the method: (§1) Compound enzyme inhibition effect was calculated as a % inhibition of control enzyme activity. […] Measurements were performed in duplicate.

Series [4] concerns the target T2, serotonin 5-HT2B receptor (Homo sapiens, UniProt P41595).
T2 construct: Eurofins SafetyScreen44
In words: SafetyScreen44 binding. As to conditions: 10 μM; substantial = higher than 50%. How it is done: as §1

Series [5] has as its target T3, human ether-à-go-go (hERG) potassium channel (Homo sapiens, UniProt Q12809).
T3 construct: Eurofins SafetyScreen44
In words: SafetyScreen44 binding. As to conditions: 10 μM. Here is the method:
as §1

By AUC(0-inf) is commonly meant total exposure, with the tail of the curve extrapolated. By AUC(0-t) is commonly meant the area under the concentration-time curve up to a stated or last time point. One may read the CL/F as clearance divided by bioavailability, as obtained after extravascular dosing. For orientation: Cmax means the highest concentration seen after dosing. One may read the Tmax as the time from dosing to the highest level. A word on the Vd/F: it is the volume of distribution divided by bioavailability. Broadly, the half-life is the time needed for the level to fall by half in the phase considered. A higher half-life goes with slow loss.

Bounds are passed on as bounds.

T2 sequence (P41595 whole entry): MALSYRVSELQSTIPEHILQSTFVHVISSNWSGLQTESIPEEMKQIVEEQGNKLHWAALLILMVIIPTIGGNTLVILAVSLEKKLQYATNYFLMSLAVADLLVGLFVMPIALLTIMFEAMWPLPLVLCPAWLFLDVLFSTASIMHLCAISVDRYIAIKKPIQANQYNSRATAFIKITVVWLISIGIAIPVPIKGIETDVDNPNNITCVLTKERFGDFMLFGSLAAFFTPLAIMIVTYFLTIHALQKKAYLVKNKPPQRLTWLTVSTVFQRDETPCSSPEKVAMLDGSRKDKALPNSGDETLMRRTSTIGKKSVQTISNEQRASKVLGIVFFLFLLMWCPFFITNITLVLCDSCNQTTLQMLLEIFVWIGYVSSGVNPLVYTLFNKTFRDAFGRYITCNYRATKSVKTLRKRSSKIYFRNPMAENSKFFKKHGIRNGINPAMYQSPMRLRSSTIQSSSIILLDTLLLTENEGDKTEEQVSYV
T1 sequence (P28223 whole entry): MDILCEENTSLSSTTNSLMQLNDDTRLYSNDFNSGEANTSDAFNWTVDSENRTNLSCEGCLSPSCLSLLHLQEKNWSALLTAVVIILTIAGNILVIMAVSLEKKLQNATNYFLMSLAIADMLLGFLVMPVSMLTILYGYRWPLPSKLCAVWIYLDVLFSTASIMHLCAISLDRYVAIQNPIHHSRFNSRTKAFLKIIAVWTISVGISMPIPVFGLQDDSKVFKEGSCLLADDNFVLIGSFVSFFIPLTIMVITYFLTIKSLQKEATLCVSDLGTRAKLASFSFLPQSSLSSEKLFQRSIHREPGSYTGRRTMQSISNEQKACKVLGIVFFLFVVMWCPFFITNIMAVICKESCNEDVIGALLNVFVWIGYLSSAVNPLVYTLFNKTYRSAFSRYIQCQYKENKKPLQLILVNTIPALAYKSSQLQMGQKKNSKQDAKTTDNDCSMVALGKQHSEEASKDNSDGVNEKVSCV
T3 sequence (Q12809 whole entry): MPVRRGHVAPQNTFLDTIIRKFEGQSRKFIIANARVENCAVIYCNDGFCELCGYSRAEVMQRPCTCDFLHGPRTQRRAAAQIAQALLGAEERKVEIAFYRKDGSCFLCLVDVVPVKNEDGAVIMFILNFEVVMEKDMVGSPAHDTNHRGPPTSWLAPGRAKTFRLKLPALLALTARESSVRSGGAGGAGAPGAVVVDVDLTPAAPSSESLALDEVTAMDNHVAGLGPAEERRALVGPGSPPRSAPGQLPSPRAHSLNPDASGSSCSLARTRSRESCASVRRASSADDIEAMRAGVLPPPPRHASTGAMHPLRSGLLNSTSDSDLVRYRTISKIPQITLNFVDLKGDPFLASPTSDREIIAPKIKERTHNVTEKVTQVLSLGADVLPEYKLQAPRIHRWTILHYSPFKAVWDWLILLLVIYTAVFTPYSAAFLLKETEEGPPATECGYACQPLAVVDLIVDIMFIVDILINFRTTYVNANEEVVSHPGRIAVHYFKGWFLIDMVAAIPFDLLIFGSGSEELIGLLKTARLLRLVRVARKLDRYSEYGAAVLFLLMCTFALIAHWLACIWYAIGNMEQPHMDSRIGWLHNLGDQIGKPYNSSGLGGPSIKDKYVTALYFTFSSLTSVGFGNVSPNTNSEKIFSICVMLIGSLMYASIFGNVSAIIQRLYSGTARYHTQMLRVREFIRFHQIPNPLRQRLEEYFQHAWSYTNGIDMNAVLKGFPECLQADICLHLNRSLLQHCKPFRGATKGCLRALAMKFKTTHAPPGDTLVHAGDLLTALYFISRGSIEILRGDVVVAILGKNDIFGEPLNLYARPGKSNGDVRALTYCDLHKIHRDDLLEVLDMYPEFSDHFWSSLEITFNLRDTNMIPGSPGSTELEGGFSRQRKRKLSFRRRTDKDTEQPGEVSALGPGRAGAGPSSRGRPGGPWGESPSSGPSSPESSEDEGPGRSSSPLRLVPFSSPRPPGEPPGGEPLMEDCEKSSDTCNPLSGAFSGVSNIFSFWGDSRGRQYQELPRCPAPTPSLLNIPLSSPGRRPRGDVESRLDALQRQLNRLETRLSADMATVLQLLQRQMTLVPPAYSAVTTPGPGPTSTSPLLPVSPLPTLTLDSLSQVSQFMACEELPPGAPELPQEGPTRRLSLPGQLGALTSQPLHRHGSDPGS

For `O=C(O)COCCN1CCCN(C2=Nc3ccccc3Oc3ccc(C(F)(F)F)cc32)CC1` [Compound 9, 2-(2-(4-(2-(Trifluoromethyl)dibenzo[b,f][1,4]oxazepin-11-yl)-1,4-diazepan-1-yl)ethoxy) acetic acid], in series [1], the “% AUCextra” value is 0.6%, the AUC(0-inf) was 123 ng·h/mL, the AUC(0-t) worked out at 123 ng·h/mL and the apparent clearance (CL/F) was 135 mL/min/kg. In addition, in series [1], the highest concentration (Cmax) is 242 ng/mL, the Cz turned out to be 0.3 ng/mL, the time of peak concentration (Tmax) turned out to be 15 min and the Vd/F was determined as 21.1 L/kg. In series [1], this molecule showed a half-life of 108 min and a tz of 8 h. In addition, in series [2], the “MR (membrane retention factor)” value is on record as −0.10 and the Papp at 4 h, 100 μM was 35.5 ×10⁻⁶ cm/s.
On to `O=C(O)COCCN1CCN(C2=Nc3ccccc3Oc3ccc(C(F)(F)F)cc32)CC1` [Compound 8, 2-(2-(4-(2-(Trifluoromethyl)dibenzo[b,f][1,4]oxazepin-11-yl)piperazin-1-yl)ethoxy) acetic acid], for which, in series [1], the “% AUCextra” value came out at 20.7%, the AUC(0-inf) amounted to 851 ng·h/mL, the AUC(0-t) is 675 ng·h/mL and the apparent clearance CL/F is 19.6 mL/min/kg. Besides, in series [1], the concentration peaked (Cmax) at 316 ng/mL, the Cz worked out at 31.4 ng/mL, the Tmax stood at 15 min and the Vd/F is 6.58 L/kg. Also, in series [1], the half-life is 234 min and the tz amounted to 8 h. Also, in series [2], the Papp at 4 h, 100 μM is 26.3 ×10⁻⁶ cm/s.
Turning to `O=C(O)COCCN1CCN(C2=Nc3ccccc3Oc3ccc(Cl)cc32)CC1` [Compound 6, 2-(2-(4-(2-Chlorodibenzo[b,f][1,4]oxazepin-11-yl)piperazin-1-yl)ethoxy) acetic acid], in series [1], the “% AUCextra” value is 10.1%, the AUC(0-inf) came out at 467 ng·h/mL, the exposure AUC(0-t) stood at 420 ng·h/mL and the apparent clearance (CL/F) was 35.7 mL/min/kg. In addition, in series [1], the concentration peaked (Cmax) at 240 ng/mL, the Cz amounted to 13.3 ng/mL, the time to peak (Tmax) amounted to 15 min and the Vd/F came out at 7.56 L/kg. For the same molecule, in series [1], the half-life is 144 min and the tz is 8 h. Further, in series [1] (mice, 1 mg/kg i.p., read-out: brain/plasma ratio), the Kp is ≤ 0.3. In addition, the Papp at 4 h, 100 μM in series [2] was 24.5 ×10⁻⁶ cm/s. Further, the “motor function in the vertical pole test” value with motor function of mice was “did neither impair the motor function”. Moreover, the “binding inhibition, 5-HT2A” value in series [3] is listed as “substantial binding”. The “binding inhibition, 5-HT2B” value in series [4] is “substantial binding”. In series [5], the “binding to hERG potassium channel in the off-target screen” value is “did not measurably bind”.
As for `OCCN1CCN(C2=Nc3ccccc3Oc3ccc(Cl)cc32)CC1` [Compound 5, 2-(4-(2-Chlorodibenzo[b,f][1,4]oxazepin-11-yl)piperazin-1-yl) ethan-1-ol], in series [1], the “% AUCextra” value is 1.3%, the AUC(0-inf) was determined as 50.2 ng·h/mL, the exposure AUC(0-t) was 49.6 ng·h/mL and the CL/F is 332 mL/min/kg. In series [1], the peak level (Cmax) was 44 ng/mL, the Cz came to 0.4 ng/mL, the Tmax is 15 min and the Vd/F worked out at 33.1 L/kg. For the same molecule, in series [1], the half-life was 72 min and the tz was determined as 8 h. In series [2], the “MR (membrane retention factor)” value was 0.03 and the Papp at 4 h, 100 μM was 39.8 ×10⁻⁶ cm/s.
For `CN1CCN(C2=Nc3ccccc3Oc3ccc(C(F)(F)F)cc32)CC1` [Compound 2, 11-(4-Methylpiperazin-1-yl)-2-(trifluoromethyl)dibenzo[b,f][1,4]oxazepine], in series [1], the “% AUCextra” value is on record as 19.3%, the AUC(0-inf) worked out at 84 ng·h/mL, the AUC(0-t) was 67.8 ng·h/mL and the CL/F is 199 mL/min/kg. In series [1], the concentration peaked (Cmax) at 25.6 ng/mL, the Cz was found to be 3.3 ng/mL, the time to peak (Tmax) was found to be 15 min and the Vd/F amounted to 58.5 L/kg. In series [1], this molecule gave a half-life of 204 min and a tz of 8 h. Also, in series [2], the “MR (membrane retention factor)” value amounted to 0.64 and the Papp at 4 h, 100 μM was 26.3 ×10⁻⁶ cm/s.
For the molecule `CN1CCN(C2=Nc3cc(F)ccc3Oc3ccc(C(F)(F)F)cc32)CC1` [Compound 4, 8-Fluoro-11-(4-methylpiperazin-1-yl)-2-(trifluoromethyl)dibenzo[b,f][1,4]oxazepine], in series [1], the “% AUCextra” value stood at 11.4%, the AUC(0-inf) was 122 ng·h/mL, the area under the curve AUC(0-t) worked out at 108 ng·h/mL and the CL/F was 137 mL/min/kg. For the same molecule, in series [1], the peak concentration (Cmax) turned out to be 40 ng/mL, the Cz is 4.1 ng/mL, the Tmax stood at 30 min and the Vd/F came out at 27.7 L/kg. In series [1], this molecule gave a half-life of 138 min and a tz of 8 h. Also, in series [2], the “MR (membrane retention factor)” value was 0.74 and the Papp at 4 h, 100 μM was 21.4 ×10⁻⁶ cm/s.
`CN1CCCN(C2=Nc3ccccc3Oc3ccc(C(F)(F)F)cc32)CC1` [Compound 3, 11-(4-Methyl-1,4-diazepan-1-yl)-2-(trifluoromethyl)dibenzo[b,f][1,4]oxazepine]: in series [1], the “% AUCextra” value came to 5.0%, the total exposure AUC(0-inf) is 58.3 ng·h/mL, the exposure AUC(0-t) was determined as 55.4 ng·h/mL and the apparent clearance (CL/F) was 286 mL/min/kg. For the same molecule, in series [1], the Cmax came out at 32.3 ng/mL, the Cz turned out to be 1.0 ng/mL, the time of peak concentration (Tmax) came out at 30 min and the Vd/F worked out at 50.1 L/kg. In series [1], this molecule had a half-life of 120 min and a tz of 8 h. In series [2], the “MR (membrane retention factor)” value is 0.5 and the Papp at 4 h, 100 μM was 38 ×10⁻⁶ cm/s.
For the molecule `OCCOCCN1CCN(C2=Nc3ccccc3Sc3ccc(Cl)cc32)CC1` [Compound 7, 2-(2-(4-(2-Chlorodibenzo[b,f][1,4]thiazepin-11-yl)piperazin-1-yl)ethoxy) ethan-1-ol], in series [1], the “% AUCextra” value is given as 0.9%, the total exposure AUC(0-inf) amounted to 71.9 ng·h/mL, the area under the curve AUC(0-t) turned out to be 71.2 ng·h/mL and the apparent clearance CL/F was 232 mL/min/kg. Moreover, in series [1], the concentration peaked (Cmax) at 87.2 ng/mL, the Cz stood at 0.3 ng/mL, the time to peak (Tmax) came out at 15 min and the Vd/F amounted to 31.4 L/kg. In series [1], this molecule had a half-life of 96 min and a tz of 8 h. In addition, in series [2], the “MR (membrane retention factor)” value was found to be 0.19 and the Papp at 4 h, 100 μM is 53.7 ×10⁻⁶ cm/s.
